Test results: PubChem BioAssay (NCI)
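Step 1: Grow cells in 96-well plates. Step 2: Expose to compound for 48 hours at 5 concentrations. Step 3: Interpolate endpoints linearly; if unreached, use highest concentration. The concentration for full growth arrest is given as TGI.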

What was measured:
Test in all cases: NCI tumour cell line growth inhibition, 48 h
SK-OV-3 ovarian = tested on: SK-OV-3 ovarian
A498 renal = tested on: A498 renal
HT29 colon = tested on: HT29 colon
SW-620 colon = tested on: SW-620 colon
OVCAR-8 ovarian = tested on: OVCAR-8 ovarian
SR leukemia = tested on: SR leukemia
OVCAR-3 ovarian = tested on: OVCAR-3 ovarian
DU-145 prostate = tested on: DU-145 prostate
MCF7 breast = tested on: MCF7 breast

With `O=c1oc2ccccc2n1P(=O)(Oc1ccc(Cl)cc1)n1c(=O)oc2ccccc21` the TGI (SK-OV-3 ovarian) was > 100 µM, the TGI (A498 renal) was > 100 µM and the TGI (HT29 colon) was > 100 µM. The TGI (SW-620 colon) was > 100 µM, the TGI (OVCAR-8 ovarian) was > 100 µM and the TGI (SR leukemia) was > 100 µM. For the same compound, the TGI (OVCAR-3 ovarian) was > 100 µM.
In the case of `COc1ccc(CNc2nc3cc(C(F)(F)F)ccc3nc2C(=O)O)cc1`, the TGI (SK-OV-3 ovarian) is reported as > 100 µM, the TGI (A498 renal) is reported as 53 µM and the TGI (HT29 colon) is reported as 73.9 µM. The TGI (SW-620 colon) was > 100 µM, the TGI (OVCAR-8 ovarian) was > 100 µM and the TGI (SR leukemia) was 56.1 µM. The TGI (OVCAR-3 ovarian) was 34.1 µM, the TGI (DU-145 prostate) was > 100 µM and the TGI (MCF7 breast) was 64.9 µM.
In the case of `CC(=O)O[C@@H]1CC[C@@]2(C)C(=O)C34C[C@@]5(C)C([C@@H](C)CCCC(C)C)CCC5(C)[C@](O)(O3)C(=O)[C@H]4C2C1(C)C` (stereo partly drawn), the TGI (SK-OV-3 ovarian) is reported as 32.4 µM, the TGI (A498 renal) is reported as 38.5 µM and the TGI (HT29 colon) is reported as 25.6 µM. It also gave a TGI (SW-620 colon) of 24.5 µM, a TGI (OVCAR-8 ovarian) of 32.9 µM and a TGI (SR leukemia) of 35.2 µM. It also gave a TGI (OVCAR-3 ovarian) of 25.1 µM.
With `C=C1CN2CCc3c([nH]c4ccccc34)C2CC1CC(=O)N(C)C` (stereo not drawn) the TGI (SK-OV-3 ovarian) was > 309 µM, the TGI (HT29 colon) was > 309 µM and the TGI (SW-620 colon) was > 309 µM. The TGI (OVCAR-8 ovarian) was > 309 µM, the TGI (SR leukemia) was > 309 µM and the TGI (OVCAR-3 ovarian) was > 309 µM.
In the case of `Cc1cccc(-c2nc(-c3cnccn3)n(Cc3ccccc3)n2)c1`, the TGI (SK-OV-3 ovarian) is reported as > 100 µM, the TGI (HT29 colon) is reported as > 100 µM and the TGI (SW-620 colon) is reported as > 100 µM. For the same compound, the TGI (OVCAR-8 ovarian) was > 100 µM, the TGI (SR leukemia) was > 100 µM and the TGI (OVCAR-3 ovarian) was > 100 µM. For the same compound, the TGI (DU-145 prostate) was > 100 µM and the TGI (MCF7 breast) was > 100 µM.
`C[C@]12CCc3nn(-c4ccccc4)nc3C1CC[C@@H]1C2CC[C@]2(C)C(=O)CCC12` (stereo partly drawn) was tested, and the TGI (SK-OV-3 ovarian) was > 100 µM, the TGI (HT29 colon) was > 100 µM and the TGI (SW-620 colon) was > 100 µM. For the same compound, the TGI (OVCAR-8 ovarian) was > 100 µM, the TGI (SR leukemia) was > 100 µM and the TGI (OVCAR-3 ovarian) was > 100 µM.
In the case of `CC(N)C(C)c1ccccc1` (stereo not drawn), the TGI (SK-OV-3 ovarian) is reported as > 100 µM, the TGI (A498 renal) is reported as > 100 µM and the TGI (HT29 colon) is reported as > 100 µM. For the same compound, the TGI (SW-620 colon) was > 100 µM, the TGI (OVCAR-8 ovarian) was > 100 µM and the TGI (SR leukemia) was > 100 µM. For the same compound, the TGI (OVCAR-3 ovarian) was > 100 µM.
With `CC(C)C(CCOS(=O)(=O)O)CCC(C)[C@H]1[C@@H](O)C(O)C2[C@]3(O)C[C@@H](O)C4(O)C[C@@H](O)CC[C@]4(C)C3CC[C@@]21C` (stereo partly drawn) the TGI (SK-OV-3 ovarian) was > 100 µM, the TGI (HT29 colon) was > 100 µM and the TGI (SW-620 colon) was > 100 µM. For the same compound, the TGI (OVCAR-8 ovarian) was > 100 µM, the TGI (SR leukemia) was > 100 µM and the TGI (OVCAR-3 ovarian) was > 100 µM.
For `C/C(CCN(C)C)=N\OC(=O)c1ccccc1`, the TGI (SK-OV-3 ovarian) was > 100 µM, the TGI (A498 renal) was > 100 µM and the TGI (HT29 colon) was > 100 µM. The TGI (SW-620 colon) was > 100 µM, the TGI (OVCAR-8 ovarian) was > 100 µM and the TGI (SR leukemia) was > 100 µM. For the same compound, the TGI (OVCAR-3 ovarian) was > 100 µM.
With `C=C(C)CCC(O)[C@](C)(O)[C@H]1[C@H](O)C[C@@]2(C)[C@@H]3CCc4c(cc(OC5OC(CO)C(O)C(O)C5O)c(O)c4C)C3(C)C(=O)C[C@]12C` (stereo partly drawn) the TGI (SK-OV-3 ovarian) was > 100 µM, the TGI (A498 renal) was > 100 µM and the TGI (HT29 colon) was > 100 µM. The TGI (SW-620 colon) was > 100 µM, the TGI (OVCAR-8 ovarian) was > 100 µM and the TGI (SR leukemia) was > 100 µM. For the same compound, the TGI (OVCAR-3 ovarian) was > 100 µM, the TGI (DU-145 prostate) was > 100 µM and the TGI (MCF7 breast) was > 100 µM.
In the case of `Cn1c(=O)n(C2(C)CSC2)c2ccccc21`, the TGI (SK-OV-3 ovarian) is reported as > 100 µM, the TGI (A498 renal) is reported as > 100 µM and the TGI (HT29 colon) is reported as > 100 µM. The TGI (SW-620 colon) was > 100 µM, the TGI (OVCAR-8 ovarian) was > 100 µM and the TGI (SR leukemia) was > 100 µM.
With `Cc1ccc(S(=O)(=O)Nn2c(S)c(C#N)c(-c3ccc(Cl)cc3)c(C#N)c2=O)cc1` the TGI (SK-OV-3 ovarian) was > 100 µM, the TGI (A498 renal) was > 100 µM and the TGI (SW-620 colon) was 51.7 µM. The TGI (OVCAR-8 ovarian) was 50.8 µM, the TGI (SR leukemia) was > 100 µM and the TGI (OVCAR-3 ovarian) was > 100 µM. The TGI (DU-145 prostate) was > 100 µM and the TGI (MCF7 breast) was > 100 µM.
For `CC1=CC[C@@H](C(C)(C)O)C[C@@H]1O`, the TGI (SK-OV-3 ovarian) was > 5000 µM, the TGI (A498 renal) was > 5000 µM and the TGI (HT29 colon) was > 5000 µM. The TGI (SW-620 colon) was > 5000 µM, the TGI (OVCAR-8 ovarian) was > 5000 µM and the TGI (SR leukemia) was > 5000 µM. The TGI (OVCAR-3 ovarian) was > 5000 µM.
In the case of `COc1ccc(-c2cc(=O)c3cc(O)ccc3o2)c(OC)c1OC`, the TGI (SK-OV-3 ovarian) is reported as 99.1 µM, the TGI (HT29 colon) is reported as > 100 µM and the TGI (SW-620 colon) is reported as > 100 µM. The TGI (SR leukemia) was 77.6 µM and the TGI (OVCAR-3 ovarian) was 46.3 µM.
With `O=C(OCC(OC(=O)c1ccccc1)C1CC(C2(O)CCCCC2)C(=O)O1)c1ccccc1` (stereo not drawn) the TGI (SK-OV-3 ovarian) was > 25 µM, the TGI (A498 renal) was > 25 µM and the TGI (HT29 colon) was > 25 µM. The TGI (SW-620 colon) was > 25 µM, the TGI (OVCAR-8 ovarian) was > 25 µM and the TGI (SR leukemia) was > 25 µM. For the same compound, the TGI (OVCAR-3 ovarian) was > 25 µM, the TGI (DU-145 prostate) was > 25 µM and the TGI (MCF7 breast) was > 25 µM.
In the case of `COc1nc(NC2OC(CO)C(O)C(O)C2O)c(N)c(=O)[nH]1` (stereo not drawn), the TGI (SK-OV-3 ovarian) is reported as > 100 µM, the TGI (A498 renal) is reported as > 100 µM and the TGI (HT29 colon) is reported as > 100 µM. For the same compound, the TGI (SW-620 colon) was > 100 µM, the TGI (OVCAR-8 ovarian) was > 100 µM and the TGI (OVCAR-3 ovarian) was > 100 µM. For the same compound, the TGI (MCF7 breast) was > 100 µM.
With `CC#CC#C/C=C1\C=CC2(OC=CC2O)O1` (stereo not drawn) the TGI (SK-OV-3 ovarian) was > 23.3 µM, the TGI (HT29 colon) was > 23.3 µM and the TGI (SW-620 colon) was > 23.3 µM. The TGI (OVCAR-8 ovarian) was > 23.3 µM, the TGI (SR leukemia) was > 23.3 µM and the TGI (OVCAR-3 ovarian) was > 20 µM.
`CCCC(C(=O)OC)C1N=C(NC#N)N(Cc2ccccc2)C1=O` (stereo not drawn) was tested, and the TGI (SK-OV-3 ovarian) was > 100 µM, the TGI (HT29 colon) was > 100 µM and the TGI (SW-620 colon) was > 100 µM. The TGI (OVCAR-8 ovarian) was > 100 µM, the TGI (SR leukemia) was > 100 µM and the TGI (OVCAR-3 ovarian) was > 100 µM.
`COC(=O)C1=CCC2c3[nH]c4ccccc4c3CCN2C1` (stereo not drawn) was tested, and the TGI (SK-OV-3 ovarian) was > 354 µM, the TGI (HT29 colon) was > 354 µM and the TGI (SW-620 colon) was > 354 µM. The TGI (OVCAR-8 ovarian) was > 354 µM, the TGI (SR leukemia) was > 354 µM and the TGI (OVCAR-3 ovarian) was > 354 µM.
With `CC(C)(C)CI` the TGI (SK-OV-3 ovarian) was > 100 µM, the TGI (A498 renal) was > 100 µM and the TGI (HT29 colon) was > 10 µM. The TGI (SW-620 colon) was 36.1 µM, the TGI (OVCAR-8 ovarian) was > 10 µM and the TGI (SR leukemia) was 76.7 µM. It also gave a TGI (OVCAR-3 ovarian) of 35.4 µM.
With `COC(=O)Cc1c(C2C(CC(=O)OC)c3ccccc3N2C2OC(CO)C(O)C(O)C2O)[nH]c2ccccc12` (stereo not drawn) the TGI (SK-OV-3 ovarian) was > 100 µM, the TGI (A498 renal) was > 100 µM and the TGI (HT29 colon) was > 100 µM. For the same compound, the TGI (SW-620 colon) was > 100 µM, the TGI (SR leukemia) was > 100 µM and the TGI (OVCAR-3 ovarian) was > 100 µM. The TGI (DU-145 prostate) was > 100 µM.
In the case of `NC(CSCSCC(N)C(=O)O)C(=O)O` (stereo not drawn), the TGI (SK-OV-3 ovarian) is reported as > 225 µM, the TGI (A498 renal) is reported as > 225 µM and the TGI (HT29 colon) is reported as > 225 µM. The TGI (SW-620 colon) was > 225 µM, the TGI (OVCAR-8 ovarian) was > 22.5 µM and the TGI (OVCAR-3 ovarian) was > 225 µM. The TGI (MCF7 breast) was > 225 µM.
